This is an account of results in US12037350B2, “Compositions and methods for the prevention and/or treatment of mitochondrial disease, including Friedreich's ataxia” (Stealth BioTherapeutics Inc., priority 2020, dated 2024).

The structures appear in SMILES notation.

The test system of assay [1] is frataxin deficient fibroblasts (GM03665) from Friedreich's ataxia patient. As to the kind of experiment: Frataxin Deficient Fibroblast Viability Assay (BSO Assay). Format: cell-based. The following applies: for EC50: Homo sapiens, Fibroblast, FA patient fibroblasts pretreated with compound, BSO 10 mM, MTT after 48 hrs. The procedure: Example 12: Frataxin Deficient Fibroblast Viability Assay (the “BSO Assay”)
This Example was used to evaluate the various new compositions for their potential efficacy in the treatment of Friedreich's Ataxia (FA or FRDA)—substantially as described in the above cited Reference (Matthias et al.).
The stock solutions of the test articles (and control compounds) were prepared in dimethyl sulfoxide (DMSO at 10 mM), Working stock solutions (2 times concentrated) were prepared on the day of the experiment in respective cell culture medium to be used for assay (detailed medium description below). A listing of compounds used as test articles in this Example 12 are found in Table 1, below.
A patient derived frataxin deficient fibroblast cell line was obtained from Coriell Institute. More specifically, the following cell lines/DNA samples were obtained from the NIGMS Human Genetic Cell Repository at the Coriell Institute for Medical Research: GM03665. To evaluate importance of various growth conditions on cell susceptibility to BSO toxicity cells were grown on:
MEM (Sigma-Aldrich) 15% Fetal Bovine Serum (FBS) without growth factors;
MEM (Sigma-Aldrich) 15% FBS with growth factors (Catalogue number 100-18B, Recombinant Human FGF-basic (154 a.a.) and catalogue number AF-100-15, Animal-Free Recombinant Human EGF from Peprotech);
MEM199/MEM EBS (Bioconcept Ltd.) 10% FBS, insulin 10 μg/ml, L-glutamine 2 mM with growth factors (Catalogue number 100-18B, Recombinant Human FGF-basic (154 a.a.) and catalogue number AF-100-15, Animal-Free Recombinant Human EGF from Peprotech).
To conduct an experiment, fibroblast cells (from all growth conditions) were seeded (100 μL (cells 3×10^3/well) on 96-well plates in MEM199/MEM EBS medium 10% FBS, insulin 10 μg/mL, L-glutamine 2 mM with growth factors and allowed to grow on plate for 24 hrs. After 24 hrs., media was removed and then test compounds of interest were added (100 μL, 2 times concentrated stock) to 96-well plates (end DM80 concentration not exceeding 0.5%) and incubated for 24 hours. Then L-buthionine-sulfoximine (BSO, from Acros Organics, Cat. No. 235520010) was added (100 μL, 2 times concentrated stock) at end concentrations ranging from 1 to 10 mM. Both test compounds and BSO were dissolved in MEM199/MEM EBS medium 10% FBS, insulin 10 μg/mL, L-glutamine 2 mM with growth factors. Cell viability was monitored and either after 24- or 48-hours cell viability was assayed by MTT (Thiazolyl blue tetrazolium bromide) assay. For the MTT assay, media was removed and 100 μL of MTT 1 mg/mL was added, incubated for 2 hours at +37° C., then medium was removed and 100 μL of isopropanol added to dissolve sediment. Absorption was measured at 570 (OD570) and 650 (QD650) nm wavelengths. Control cells (vehicle instead of BSO and compound) and vehicle control (with BSO, but vehicle instead of test compound) were treated in the same manner as ceils with BSO and compound. All cell media contained penicillin and streptomycin 100 U/mL each.
Absorption readouts were processed as follows: ValueΔ=ValueOD570−ValueOD650 and the obtained values were used to calculate cell viability as % of control cell (i.e., no BSO, no compound, just vehicle) viability.
Except as otherwise indicated in Table 1, all samples were run in at least 3 replicates for test compounds and at least 8 replicates for controls (i.e., both control (no BSO, no compound) and vehicle control (i.e., with BSO, no compound). Exact N per data points are indicated in the figures/table legends. Results for the compounds (test articles and controls) tested are listed in Table 1, below.
This is a cell-based assay measuring cytotoxicity which results from oxidative stress subsequent to depletion of endogenous glutathione defense mechanisms. The cells were primary Friedreich Ataxia (FA) patient fibroblasts which were incubated for 48 hrs. in BSO, an inhibitor of gamma glutamyl synthetase, an enzyme required for glutathione production. […]

Assay [2] has as its system GM03665 cells (fibroblasts from a subject with Friedreich's ataxia). As to the kind of experiment: RSL-3 Toxicity Assay (RSL-3 Assay). Format: cell-based, human. The following applies: Homo sapiens, Fibroblast; GM03665 cells, RSL-3 2 μM, 24 hours, MTT. The source says:
Example 14: RSL-3 Toxicity Assay (RSL-3 Assay)
This assay has been adapted from: Hinman, A., Holst, C. R., Latham, J. C., Bruegger, J. J., Ulas, G., McCusker, K. P., Amagata, A., Davis, D., Hoff, K. G., Kahn-Kirby, A. H., Kim, V., Kosaka, Y., Lee, E., Malone, S. A., Mei, J. J., Richards, S. J., Rivera, V., Miller, G., Trimmer, J. K., Shrader, W. D., “Vitamin E hydroquinone is an endogenous regulator of ferroptosis via redox control of 15-lipoxygenase”, (2018) PLoS ONE 13(8): e0201369.
In brief, GM03665 cells (Coriell Institute) were seeded in 96-well plates (Sarstedt) in DMEM cell culture media containing 10% Fetal Bovine serum and 1% Penicillin-Streptomycin (Pen-Strep) antibiotic mix at the amount of 2×10^4/mL (100 μL or 2×10^3 cells per well). Cells were left to rest overnight at 37° C. in a humidified atmosphere with 5% CO2 to allow attachment of the cells to the culture plate. Test compounds were prepared as DMSO stocks (10 mM) and were serially diluted in cell culture media to obtain 2× working solutions. Cell media was discarded and replaced by 50 μL of test compound solutions or cell media with vehicle for control wells. Within 15 minutes, 2× working solution (4 μM) of 1S,3R-RSL-3 (CAS #1219810-16-8, Sigma-Aldrich) (diluted from 5 mM DMSO stock in cell culture media) was added. Final reaction volume was 100 μL and final DMSO concentration in reaction was kept below 0.2% (v/v) and equal in all wells. Final RSL-3 concentration was 2 μM and test compound final concentrations in reaction were up to 1000 nM. After 24 hours of incubation cell viability was assessed by MTT test. MTT (Sigma-Aldrich) solution 1 mg/mL in IX PBS (pH=7.4) was prepared 1 hour before the assay and filtered through Filtropur S 0.2 filters (Sarstedt). Cell media with test compounds was discarded and 100 μL of MTT solution was added to cells. The plates were incubated for 2 hours at +37° C. Thereafter, the MTT solution was removed and 100 μL of isopropanol was added to dissolve sediment. Absorption at 570 and 650 nm was measured using Hidex Sense microplate reader.
Compounds A and B and idebenone were not examined in this assay. The data presented in Table 1 indicates omaveloxolone was not active in this assay but that vatiquinone was active.
Discussion—Both BSO and RSL-3 are frequently utilized to induce the regulated cell death pathway known as ferroptosis. Ferroptosis is thought to require the joint activity of iron catalyzed oxidative stress and lipid peroxidation and has been described in cell and animal models of multiple neurodegenerative diseases, including Friedreich's Ataxia, Huntington Disease, Parkinson Disease and Alzheimer's Disease. […] Of note, the results for Compounds C-I and K were favorable with respect to inhibition of ferroptotic cell death when either BSO or RSL3 were used as initiating stimulus, differentiating these compounds from omaveloxolone and idebenone.

The test system of the next assay is HepG2 cells. The assay is described as follows: Rotenone Oxygraph Assay (high-resolution respirometry of intact HepG2 cells). Format: cell-based, human. The following applies: Homo sapiens; intact HepG2 cells, rotenone 1 μM, compound 10 μM, increase in respiration rate. The procedure:
Example 15: Rotenone Oxygraph Assay (High-Resolution Respirometry of Intact HepG2 Cells)
The Oxygraph-2k (O2k, OROBOROS INSTRUMENTS, Austria) was used for measurements of respiration of intact cells. The respirometry was performed in Dulbecco's Modified Eagle Medium (DMEM) high glucose without supplements. All experiments were performed at 37° C.
HepG2 cells (ATCC collection code HB-8065™) were cultured in 10 cm^2 culture dishes in DMEM high glucose medium supplemented with 10% fetal bovine serum (FBS) and 100 units/mL penicillin and 100 μg/mL streptomycin until approximately 90% confluence was reached. Immediately prior to performing the respirometric assay, the cells were washed with media without FBS, trypsinized and resuspended in DMEM high glucose without FBS.
The final concentration of intact cells in the O2k-chamber was 0.5-10^6/mL. After stabilization of respiration, the Complex I inhibitor, rotenone, at 1 μM final concentration was added to inhibit electron flux via Complex I. Then, compound to be tested was added at 10 μM final concentration, and the change in respiration rate of intact cells was monitored. […]

As to `CC1=C(C)C(=O)C(C/C=C(\C)CC/C=C(\C)CCC=C(F)F)=C(C)C1=O` [Compound A, 2-((2E,6E)-11,11-difluoro-3,7-dimethylundeca-2,6,10-trien-1-yl)-3,5,6-trimethylcyclohexa-2,5-diene-1,4-dione], the “protection against BSO induced cell death (in words)” value in assay [1] (BSO Assay, text statement) is “best of the test compounds”. In addition, the EC50 in assay [1] stood at 67.1 nM.
For the molecule `CCCCCCCCCCC1=C(C)C(=O)C(OC)=C(OC)C1=O` [Compound D, reference compound], the 50% effective concentration (EC50) amounted to 159 nM in assay [1] and 70 nM in assay [2]. This molecule displayed an activation at 10 µM in the assay on HepG2 cells of 30%.
The corresponding values for `COC1=C(OC)C(=O)C(CCCCCC(F)(F)F)=C(C)C1=O` [Compound E, 2,3-dimethoxy-5-methyl-6-(6,6,6-trifluorohexyl)cyclohexa-2,5-diene-1,4-dione] are 359 nM, 135 nM and 49%.
Take `COC1=C(OC)C(=O)C(CCCCCC(F)F)=C(C)C1=O` [Compound F, 2-(6,6-difluorohexyl)-5,6-dimethoxy-3-methylcyclohexa-2,5-diene-1,4-dione]: the EC50 in assay [1] was determined as 689 nM; in assay [2], 146 nM. In the assay on HepG2 cells, this molecule had an activation at 10 µM of 44.7%.
In the same order, the values of `COC1=C(OC)C(=O)C(CCCCCCF)=C(C)C1=O` [Compound G, 2-(6-fluorohexyl)-5,6-dimethoxy-3-methylcyclohexa-2,5-diene-1,4-dione] are 555 nM, 205 nM and 42.7%.
In the same order, the values of `CCCCCCCC1=C(C)C(=O)C(OC)=C(OC)C1=O` [Compound H, 2-heptyl-5,6-dimethoxy-3-methylcyclohexa-2,5-diene-1,4-dione] are 241 nM, 56 nM and 41.8%.
In the same order, the values of `COC1=C(OC)C(=O)C(CCCC(F)(F)F)=C(C)C1=O` [Compound I, 2,3-dimethoxy-5-methyl-6-(4,4,4-trifluorobutyl)cyclohexa-2,5-diene-1,4-dione] are 772 nM, 479 nM and 37.8%.
Regarding `COC1=C(OC)C(=O)C(CCC[Si](C)(C)C)=C(C)C1=O` [Compound K, 2,3-dimethoxy-5-methyl-6-(3-(trimethylsilyl)propyl)cyclohexa-2,5-diene-1,4-dione], the midpoint of the response in assay [2], the EC50, lay at 75 nM. The molecule further came in with an activation at 10 µM with HepG2 cells of 41.4%.

For orientation: EC50 means the concentration that produces a half-maximal response.
